From US20160030472A1, “XENON-BASED ANESTHETIC GAS COMPOSITION USABLE DURING AN ENDARTERECTOMY INVOLVING THE CLAMPING OF THE CAROTID ARTERY” (Air Liquide Santé (International), priority 2013, published 2016) come the findings set out here.

The experiment relates to patients scheduled for carotid surgery. In words: Randomized study of xenon versus sevoflurane for maintaining general anesthesia during carotid endarterectomy with clamping of the internal carotid artery. The format is in vivo, human being. The conditions noted are these: for average radial-carotid pressure gradient (PG) between systemic SAP and arterial pressure in the clamped carotid artery: during clamping of the internal carotid artery, group X (xenon 60%±5%, at least 30% oxygen) compared with group S (sevoflurane), 12 patients per group. As for the experimental part:
The study was carried out in 24 patients scheduled for carotid surgery, comprising men and women. The choice of treatment of the patients is made randomly (randomization): • either using a routine anesthetic agent, namely sevoflurane: group S of 12 patients, • or by inhalation of xenon at 60%±5% in a mixture with at least 30% of oxygen: group X of 12 patients (% by volume). Anesthesia was induced identically in the 2 groups using intravenous products, namely propofol (target 1.5 μg/ml) and a morphine compound, remifentanil (target 4 ng/ml), double TCI (Target Controlled Infusion). The main assessment criterion is the pressure gradient (PG) between the systolic arterial pressure (SAP) measured at the level of a radial arterial catheter contralateral to the surgery and the arterial pressure in the clamped carotid artery. This pressure is obtained by means of a Fogarty catheter, which also enables clamping of the internal carotid artery by inflation of the balloon, connected to a pressure sensor. The continuous recording and the calculation of the PG are carried out live by a BiopAC system. This method makes it possible to obtain a measurement of the PG throughout the entire duration of the clamping of the internal carotid artery. The statistical analyses are carried out with R Project for Statistician Computing (www.r-project.org).

For `FCOC(C(F)(F)F)C(F)(F)F` [sevoflurane, reference compound], the “consumption of vasopressor products for maintaining the systemic arterial pressure” value (group S compared with group X, p<0.001) is given as “significantly higher”.
With `[Xe]` [xenon], the “average radial-carotid pressure gradient (PG) between systemic SAP and arterial pressure in the clamped carotid artery” value (p<0.001) is reported as “reduce the pressure gradient (PG)”; the “average radial-carotid pressure gradient (PG) between systemic SAP and arterial pressure in the clamped carotid artery” value (p<0.001, listed as group X) is reported as “significantly lower”. For the same molecule, the “hemodynamic parameters during maintenance of anesthesia” value (maintenance of anesthesia with xenon) is reported as “stable”. Besides, where the note is “maintenance of anesthesia with xenon, compared with the usual inhaled or intravenous (IV) anesthetic agents”, the “systemic systolic arterial pressure values” is recorded as “higher”.
